In US20260363977A1, “COSMETIC COMPOSITION FOR PREVENTING OR AMELIORATING SKIN DISEASES COMPRISING TRIBULUS TERRESTRIS-DERIVED COMPOUND AS ACTIVE INGREDIENT” (DONGGUK UNIVERSITY INDUSTRY-ACADEMIC COOPERATION FOUNDATION, priority 2022, published 2026):

How the values were obtained:
Type in all cases: cell-based
[1] = system: p16 (Ink4a); experiment: Western blot of p16 (Ink4a) expression in keratinocytes (anti-aging effect); details: 10 μM, 48 hours, compared to control group (CON), P<0.05, FIG. 4
Experimental: (§1) Keratinocytes used were isolated from normal adult skin tissues obtained through repeated cesarean section and circumcision. The cells were dispensed into EpiLife Medium, and bovine pituitary extract (BPE), bovine insulin (BI), hydrocortisone, human epidermal growth factor (EGF), and bovine transferrin (BT) were added and cultured. The cells that had undergone the 3rd~5th passage culture were used in the experiment. The pituitary extract, bovine insulin, hydrocortisone, human epidermal growth factor, and bovine transferrin were used by purchasing from Invitrogen.
(§2) In order to identify the skin whitening and anti-aging effects of 16 candidate materials in Example 1-2, for the skin whitening effect, each of the three types of cell models constructed in the Example 2-1 was treated with the 16 candidate materials at concentrations at which no cytotoxicity is shown in the melanocytes identified in Example 1-1 for 48 hours, and then Western blot was performed to measure the expression of tyrosinase. The experiment was repeated 4 times, and P<0.05 was determined to be significant. In addition, for analysis on the anti-aging effect, the keratinocytes were treated with the above 16 candidate materials for 48 hours each, and then Western blot was performed to measure the expression of p16 (Ink4a). The experiment was repeated 4 times, and P<0.05 was determined to be significant.

[2] = system: Melanocytes; experiment: MTT cytotoxicity assay in melanocytes; details: up to the treatment concentration of 10 μM, 48 hours, FIG. 1
Experimental: (§3) Melanocytes used were isolated from normal adult skin tissues obtained through repeated cesarean section and circumcision. Dispase 2.4U (#295 825; Roche, Mannheim, Germany) was treated for 1 hour to separate the epidermis, and 0.05% trypsin was treated for 10 minutes to isolate melanocytes. Afterwards, the cells were suspended in Medium 254, and the bovine pituitary extract (BPE), fetal bovine serum (FBS), hydrocortisone, basic fibroblast growth factor (bFGF), bovine transferrin (BT), heparin, and phorbol 12-myristate13-acetate (PMA, Invitrogen) were added and cultured. The cells that had undergone the 3rd~5th passage culture were used in the experiment.
In order to identify cytotoxicity of the 136 candidate materials, MTT assays were performed. Melanocytes were treated with the candidate materials by concentration (10, 50, and 100 μM) for 48 hours, and the cell viability was measured to determine the concentration range at which no cytotoxicity of each candidate material is observed.

[3] = system: tyrosinase; p16 (Ink4a); experiment: Combined analysis of skin whitening (tyrosinase in three cell models) and anti-aging (p16 in keratinocytes) effects; details: 5 of 16 candidate materials; non-cytotoxic concentrations; 48 hours
Experimental: Keratinocytes were seeded in a culture container at 2×10^5/ml, after 24 hours, pCMV plasmids containing one of three genes [arginase 2 (ARG2, NCBI Gene ID: 384), cadherin 11 (CDH11, NCBI Gene: 1009), and guanine deaminase (GDA, NCBI Gene: 9615)] were transfected into cells using Lipofectamine 2000 to induce overexpression, and after 4 hours of culture with Dulbecco's Modified Essential Medium (DMEM) culture medium without supplements, 0.5×10^5/ml melanocytes were mixed with the keratinocyte culture medium containing supplements and co-cultured in the same culture container. After 24 hours, the keratinocyte culture medium without supplements was replaced, and after 5 hours, the normal melanocytes were treated with the 16 candidate materials for 48 hours. […]
as §2, with “In addition, for analysis on the anti-aging effect, the keratinocytes were treated with the above 16 candidate materials for 48 hours each, and then Western blot was performed to measure the expression of p16 (Ink4a).” left out

[4] = system: tyrosinase; experiment: Western blot of tyrosinase expression in ARG2 overexpressing keratinocyte / normal melanocyte co-culture model (with pCMV control gene model); details: 10 μM, 48 hours, compared to control group (CON), P<0.05, FIG. 3
Experimental: as §1
(§4) Melanocytes used were isolated from normal adult skin tissues obtained through repeated cesarean section and circumcision. […]
as §2, with “In addition, for analysis on the anti-aging effect, the keratinocytes were treated with the above 16 candidate materials for 48 hours each, and then Western blot was performed to measure the expression of p16 (Ink4a).” left out

[5] = system: tyrosinase; experiment: Western blot of tyrosinase expression in CDH11 overexpressing keratinocyte / melanocyte co-culture model (with pCMV control gene model); details: 10 μM, 48 hours, compared to control group (CON), FIG. 3
Experimental: as §1, §4
as §2, with “In addition, for analysis on the anti-aging effect, the keratinocytes were treated with the above 16 candidate materials for 48 hours each, and then Western blot was performed to measure the expression of p16 (Ink4a).” left out

[6] = system: tyrosinase; experiment: Western blot of tyrosinase expression in GDA overexpressing keratinocyte / melanocyte co-culture model (with pCMV control gene model); details: 10 μM, 48 hours, compared to control group (CON), P<0.05, FIG. 3
Experimental: as §1, §4
as §2, with “In addition, for analysis on the anti-aging effect, the keratinocytes were treated with the above 16 candidate materials for 48 hours each, and then Western blot was performed to measure the expression of p16 (Ink4a).” left out

[7] = system: tyrosinase; experiment: Western blot of intracellular tyrosinase expression in melanocytes (skin whitening effect); details: T13 at 10 μM, 48 hours, compared to control group (CON), repeated 4 times or more, FIG. 2
Experimental: as §3
In order to identify the skin whitening effect of the 136 candidate materials, Western blot was performed. After treating melanocytes with the candidate material at a concentration at which no cytotoxicity was shown in the melanocytes identified in Example 1-2 for 48 hours, intracellular tyrosinase expression was measured. The experiment was repeated 4 times or more.

## COc1cc([C@@H](O)[C@H](CO)c2ccc(O)c(OC)c2)ccc1O [T13]
[1]
  p16 (Ink4a) expression in keratinocytes: significantly reduced
[2]
  cytotoxicity in melanocytes (cell viability, MTT): did not show cytotoxicity
[3]
  skin whitening and anti-aging effects shown together: skin whitening and anti-aging effects were shown together
[4]; ARG2 model, more distinct than in pCMV model
  tyrosinase expression, ARG2 overexpressing co-cultured cell model: degree of reduction in tyrosinase expression was more distinct
[4]; pCMV model of the ARG2 experiment
  tyrosinase expression, control gene overexpressing co-cultured cell model (pCMV): significant decrease in tyrosinase expression
[5]; CDH11 model
  tyrosinase expression, CDH11 overexpressing co-cultured cell model: tyrosinase expression was reduced
[5]; pCMV model of the CDH11 experiment
  tyrosinase expression, control gene overexpressing co-cultured cell model (pCMV): did not show a significant difference in expression
[6]; GDA model, more distinct than in pCMV model
  tyrosinase expression, GDA overexpressing co-cultured cell model: degree of reduction in tyrosinase expression was more distinct
[6]; pCMV model of the GDA experiment
  tyrosinase expression, control gene overexpressing co-cultured cell model (pCMV): significant reduction in tyrosinase expression
[7]
  intracellular tyrosinase expression in melanocytes: significantly reduced
